Source: patent US10597735B2, “Antibacterial and plasmid elimination agents” (priority 2006, dated 2020)
Converted amounts (≈) assume the structure as drawn. Read-outs that look alike come from different tables or passages of the source. Where a SMILES comes first, the peptide text is derived from it. Where no end group is shown, it is not given here.

Experiments:
[1] = target: T1, ClpXP (Escherichia coli, UniProt P0A6G7+P0A6H1); assay: ClpXP degradation of GFP-tag in the presence of SspB, continuous fluorimetric assay (Examples 1-2); format: biochemical, E. coli; settings: GFP-tag degradation by ClpXP
Method: (§1) ClpXP Proteolysis: PD buffer contained 25 mM HEPES-KOH (pH 7.6), 5 mM KCl, 5 mM MgCl2, 0.032% NP-40, 5 mM ATP, and 10% glycerol. The ATP regenerating system consisted of 8 mM creatine phosphate and 0.16 mg/ml creatine kinase. Inhibition experiments were performed using a Hitachi F-2000 Fluorescence Spectrophotometer. The rate of GFP-ssrA degradation was monitored at 30° C. for 5 minutes by the loss of fluorescence (excitation 488 nm; emission 507 nm). Competition experiments with increasing concentrations of peptide were performed using GFP-ssrA (0.2 μM), ClpX6 (0.3 ArM), ClpP14 (0.8 μM), and SspB2 (0.3 μM) in PD buffer plus 200 mM KCl and ATP regenerating system. Curve fitting for the competitive inhibition assays were performed using the Scientist program (MicroMath Scientific Software, Inc.).
Characterization of ClpXP inhibitors in vitro: Two of the selected cyclic peptides were synthesized in vitro to examine their effects on enzymatic assays. Peptides with the sequence SGWRVQGPL (SEQ ID NO: 1) and SGSKGVLPL (SEQ ID NO: 2) were chemically synthesized in the linear form, circularized, and purified by HPLC. The effects of these peptides on the activity of purified ClpXP were determined in vitro using a continuous fluorimetric assay. GFP-tag, SspB, ClpX and ClpP were each purified from over-expressing strains of E. coli, and degradation of GFP-tag was monitored by loss of fluorescence. In reactions containing all components, GFP-tag was degraded with kinetic parameters kcat=1.79±0.08 min−1, KM=0.74±0.04, similar to the previously published values of 1.44 min^−1 and 0.96 μM. […] For both cyclic peptides, inhibition of ClpXP was reversible, as no inhibition was observed when ClpXP was incubated with peptide at concentrations above the Kr, and dialyzed to remove unbound peptide before addition of enzyme to the reaction. The linear versions of SGSKGVLPL (SEQ ID NO: 2) and SGWRVQGPL (SEQ ID NO: 1) had Kb, values >1 mM (Table 4), so the cyclic architecture is likely to be important for inhibition.

[2] = target: T1, ClpXP; assay: ClpXP degradation of GFP-tag in the absence of SspB (Examples 1-2); format: biochemical, E. coli; settings: for Ki: GFP-tag degradation by ClpXP; for Ki / inhibition of GFP-tag degradation by ClpXP in the absence of SspB: no SspB
Method: as §1
A priori, there are several steps in the degradation pathway that could be inhibited by the selected cyclic peptides: binding of the substrate-SspB complex to ClpXP, ATPase activity of ClpX, and hydrolysis of the peptide bond by ClpP. Molecules that block the binding of substrate to SspB should not be inhibitors of proteolysis by ClpXP, because ClpXP will degrade tmRNA-tagged substrates in the absence of SspB. To determine if the inhibitors act through SspB, the kinetic assays were repeated in the absence of this proteolytic adaptor.

[3] = system: C. crescentus; format: cell-based, Caulobacter crescentus
Method: Antibacterial activity: The peptides recovered from the selection were tested for antibacterial activity by incubating a 1:1,000 diluted saturated culture with the peptide overnight at room temperature. For each peptide a series of concentrations were tested. The mix was then plated, and the colonies were counted after a period incubation at 30° for C. crescentus or 37° C. for B. subtilis. For C. crescentus, PYE liquid media were incubated overnight at 30° C. at 250 rpm, and PYE plates were incubated for 3 days at 30° C. For B. subtilis, LB liquid media and plates were incubated overnight at 37° C. […]
Antibacterial activity of cyclic peptide inhibitors: Because ClpXP is essential in C. crescentus, we examined whether the inhibitory peptides have any effect when added exogenously to growing cultures. […] ClpXP is not essential in Bacillus subtilis, but mutants lacking ClpXP activity have growth and sporulation defects. […] No killing of E. coli or the related γ-proteobacteria Shigella flexneri and Vibrio cholera was observed. It remains to be determined if the selected cyclic peptides are effective against pathogenic bacterial that require the tmRNA-ClpXP pathway.

[4] = target: T1, ClpXP; assay: biochemical; format: biochemical, E. coli; settings: for mode of inhibition of GFP-tag degradation / Ki: SspB present; for Ki: purified peptides and E. coli proteins, GFP-tag
Method: In vitro proteolysis assays: Proteolysis of GFP-tag was performed using a continuous fluorescence assay essentially as previously described (Levchenko et al. 2000, Science 289: 2354-2356). Briefly, loss of GFP fluorescence was monitored at 507 nm after excitation at 395 nm at 30° C. using a Hitachi F-2000 Fluorescence Spectrophotometer in buffer R (25 mM HEPES-KOH (pH 7.6), 5 mM MgCl2, 50 mM KCl, 0.032% NP-40, 10% glycerol, and an ATP regeneration system containing 4 mM ATP (pH 7), 16 mM creatine phosphate and 0.32 mg/ml creatine kinase). Typically, reactions contained […], 0.3 μM ClpP14, and equimolar concentrations (0.2 μM-2.0 μM) GFP-tag and SspB. Degradation of GFP-tag protein was confirmed by SDS-PAGE assays. To examine inhibition of GFP-tag proteolysis, peptides were incubated with ClpXP in reaction buffer for 5 min prior to the addition of GFP-tag. Plots of fluorescence versus time were fit with a single exponential function to determine the initial rate of proteolysis. Kinetic parameters were estimated using Eadie-Hofstee plots.
Proteolysis of GFP-tag in the presence of ClpXP and SspB was monitored by loss of GFP fluorescence in a continuous fluorometric assay. In the absence of cyclic peptide, GFP-tag was degraded with kinetic parameters kcat=[…], KM=0.74±0.04 μM. […] Likewise, no degradation was observed when ClpX or ClpP were omitted from the reaction.

[5] = system: C. crescentus; format: cell-based, Caulobacter crescentus; settings: 14 h
Method: Antibacterial activity assays: To measure the effects of peptides on bacterial growth, cultures of C. crescentus were diluted to OD600=0.001, peptide was added at various concentrations, the cultures were incubated at 30° C. for 14 h, and the MIC was determined as the lowest concentration of peptide that prevented growth. To determine the MBC, each culture was diluted 1:100 in PYE and 10 μl of the diluted culture was spread onto PYE agar plates, incubated at 30° C. overnight, and the number of colonies on each plate was counted. The MBC was assigned as the concentration of peptide that reduced the number of colonies by 99.9% compared to cultures with no inhibitor.

[6] = target: T1, ClpXP; assay: ClpXP degradation of λO protein (Example 1); format: biochemical, E. coli; settings: concentrations near or 10-fold above the KI for GFP-tag
Method: The differing effects of SspB on inhibition indicate that inhibitors for two different steps in the ClpXP degradation pathway were obtained from the genetic screen. To confirm the different specificities of these two inhibitors, the effects on ClpXP degradation of a substrate unrelated to tmRNA tagged proteins was assayed. Because ClpXP can recognize at least 5 different protein sequences as substrate determinants, it has been proposed that there are several substrate binding sites on the protease. Inhibitors that block one site of interaction are expected to affect degradation of only the substrates that bind at that site. Conversely, inhibitors that block catalysis or obstruct a binding site required by all substrates should affect degradation of any ClpXP substrate.

[7] = system: GFP-tag degradation by ClpXP; assay: In vivo screen: GFP-tag reporter fluorescence in E. coli producing the cyclic peptide from a SICLOPPS plasmid, epifluorescence microscopy (Example 3); format: cell-based
Method: Screen for inhibitors of the tmRNA pathway: E. coli BW7786 cells containing the GFP-tag reporter and the SICLOPPS library were grown in LB broth with 30 μg/ml chloramphenicol, 100 μg/ml ampicillin, and 0.0002% arabinose at 37° C. to OD600=0.3. IPTG was added to a final concentration of 1 mM, and the culture was grown for 3 hours. Cells were sorted by fluorescence activated cell sorting (FACS) using a Beckman Coulter Elite cell sorter with Autoclone to isolate cells with GFP fluorescence, and selected cells were deposited on agar plates for clonal growth. Cells from each colony were grown in liquid culture as described above and examined by epifluorescence microscopy. The fluorescence intensity and the number of cells with fluorescence above background were scored using ImagePro software (MediaCybernetics). SICLOPPS plasmid DNA was prepared from selected clones and the region encoding the cyclic peptide was sequenced. Peptide sequences were obtained from conceptual translation of the DNA sequences.
Approximately 0.014% of the population had fluorescence over the background level, and 96 of these cells were isolated for clonal growth and characterization. To eliminate any clones that resulted from sorting errors or spurious accumulation of GFP, cells from each colony were cultured and examined by epifluorescence microscopy.

[8] = system: GFP-tag reporter; assay: GFP-tag reporter fluorescence in cells expressing SGW+5 SICLOPPS clones, epifluorescence microscopy (Example 1); format: cell-based, E. coli
Excerpt: Clonal populations are obtained by spotting the cells with high fluorescence on agar plates, and cells from each colony are screened by epi-fluorescence microscopy for fluorescence intensity. SICLOPPS plasmids from clones that pass the microscopy screen were isolated and sequenced to identify the cyclic peptide that is produced in that clone.
A SICLOPPS library was constructed in which the cyclic peptide contains three constant amino acids, SGW, followed by five random amino acids encoded by NNS codons. This library was introduced into cells containing the GFP-tag reporter, and the expression of the reporter and cyclic peptide were induced. Approximately 690,000 cells were sorted by FACS and the brightest 50 were isolated. These 50 clones were grown individually in fresh medium, the expression of reporter and cyclic peptide was induced, and the culture was observed by epifluorescence microscopy. Two clones produced cultures in which nearly 100% of the cells were highly fluorescent.

[9] = SspB present, read-out: KI value +SspB

T1 sequence (P0A6G7 15-207): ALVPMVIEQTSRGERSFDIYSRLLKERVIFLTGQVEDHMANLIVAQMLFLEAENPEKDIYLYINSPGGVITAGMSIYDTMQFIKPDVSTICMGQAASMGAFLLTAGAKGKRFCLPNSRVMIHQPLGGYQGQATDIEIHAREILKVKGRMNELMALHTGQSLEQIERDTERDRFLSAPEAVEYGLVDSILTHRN
T1 sequence (P0A6H1 whole entry): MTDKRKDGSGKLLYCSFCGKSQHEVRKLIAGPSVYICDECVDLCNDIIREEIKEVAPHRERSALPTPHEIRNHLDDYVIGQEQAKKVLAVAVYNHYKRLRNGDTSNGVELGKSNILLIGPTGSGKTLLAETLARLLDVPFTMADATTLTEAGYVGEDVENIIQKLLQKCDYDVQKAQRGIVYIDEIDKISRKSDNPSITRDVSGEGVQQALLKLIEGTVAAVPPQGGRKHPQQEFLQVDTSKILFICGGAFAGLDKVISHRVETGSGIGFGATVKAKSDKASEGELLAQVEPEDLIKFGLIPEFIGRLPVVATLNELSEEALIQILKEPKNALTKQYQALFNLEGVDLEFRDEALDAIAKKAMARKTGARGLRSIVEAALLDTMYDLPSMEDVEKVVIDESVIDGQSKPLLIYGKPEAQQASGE

| Compound | Ki [2] [µM] | MIC [3] [µM] | MBC [5] [µM] | MIC [5] [µM] | inhibition of ClpXP proteolysis of GFP-tag in vitro ([4]; at the concentrations tested) | Ki [4] [µM] | also measured |
| --- | --- | --- | --- | --- | --- | --- | --- |
| H-SGSKGVLPL-OH [linICP1, SGSKGVLPL] | > 1500 | >250 |  |  |  |  | Ki [1, 9]: > 1500 µM; Ki ([1]; read-out: Kb, values (KI) of linear versions): > 1000 µM; inhibition of ClpXP in vitro at concentrations up to 1 mM [4]: little inhibition |
| SGWRVQGPL [linICP2, SGWRVQGPL] |  | >250 |  |  |  |  |  |
| SGWHRRGM [linear IXP2, SGWHRRGM] |  |  | 376 ± 37 | 304 ± 27 |  |  |  |
| CC(C)C[C@@H]1NC(=O)[C@@H]2CCCN2C(=O)CNC(=O)[C@H](CCC(N)=O)NC(=O)[C@H](C(C)C)NC(=O)[C@H](CCCNC(=N)N)NC(=O)[C@H](Cc2c[nH]c3ccccc23)NC(=O)CNC(=O)[C@H](CO)NC1=O [ICP2, SGWRVQGPL] (HELM PEPTIDE1{G.P.L.S.G.W.R.V.Q}$PEPTIDE1,PEPTIDE1,1:R1-9:R2$$$V2.0) | > 1000 | 62.2 (≈ 61 µg/mL) |  |  | inhibited |  | inhibition of GFP-tag degradation by ClpXP in the absence of SspB [2]: did not inhibit; KI in the absence of SspB, fold higher ([2]; no SspB versus +SspB): at least 10 fold; effect on degradation of λO protein by ClpXP [6]: no effect; mode of inhibition of GFP-tag degradation [4]: competitive inhibitors |
| SGGRGGRPL (also: cyclic, mode of cyclisation not given here) [IXP5] |  |  |  |  |  |  | inhibition of ClpXP proteolysis of GFP-tag in vitro [4]: did not inhibit |
| CC(C)C[C@@H]1NC(=O)[C@@H]2CCCN2C(=O)[C@H](CC(C)C)NC(=O)[C@H](C(C)C)NC(=O)CNC(=O)[C@H](CCCCN)NC(=O)[C@H](CO)NC(=O)CNC(=O)[C@H](CO)NC1=O [ICP1, SGSKGVLPL] (HELM PEPTIDE1{G.S.K.G.V.L.P.L.S}$PEPTIDE1,PEPTIDE1,1:R1-9:R2$$$V2.0) |  | 62.2 (≈ 52.2 µg/mL) |  |  | inhibited |  | inhibition of GFP-tag degradation by ClpXP in the absence of SspB [2]: inhibited; effect on degradation of λO protein by ClpXP [6]: inhibited; mode of inhibition of GFP-tag degradation [4]: competitive inhibitors |
| CSCC[C@@H]1NC(=O)[C@H](Cc2c[nH]c3ccccc23)NC(=O)[C@H](CCCCN)NC(=O)[C@H](Cc2ccc(O)cc2)NC(=O)[C@@H]2CCCN2C(=O)[C@H](Cc2c[nH]c3ccccc23)NC(=O)CNC(=O)[C@H](CO)NC1=O [Con62, SGWPYKWM, reference compound] (HELM PEPTIDE1{G.W.P.Y.K.W.M.S}$PEPTIDE1,PEPTIDE1,1:R1-8:R2$$$V2.0) | > 1000 | >250 | >600 | >600 |  | > 1000 | Ki [1, 9]: > 1000 µM |
| CSCC[C@@H]1NC(=O)CNC(=O)[C@H](CCCNC(=N)N)NC(=O)[C@H](CCCNC(=N)N)NC(=O)[C@H](Cc2c[nH]cn2)NC(=O)[C@H](Cc2c[nH]c3ccccc23)NC(=O)CNC(=O)[C@H](CO)NC1=O [IXP2, SGWHRRGM] (HELM PEPTIDE1{G.M.S.G.W.H.R.R}$PEPTIDE1,PEPTIDE1,1:R1-8:R2$$$V2.0) |  |  | >600 | 430 ± 40 (≈ 416 µg/mL) | did not inhibit | > 1000 | % fluorescent cells ([7]; cells with fluorescence at least 0.5 times that of ΔclpX cells producing GFP-tag): 30-40%; GFP-tag fluorescence / inhibition in vivo ([7]; compared with ΔclpX strain): indistinguishable from the ΔclpX strain; average fluorescent intensity relative to cultures expressing ICP1 or ICP2 [8]: more than twice; cells highly fluorescent ([8]; induced culture): ~100% |
| H-SGWYGRRH-OH [linear IXP1, SGWYGRRH] |  |  | 481 ± 38 | 385 ± 28 |  | > 1000 | inhibition of ClpXP in vitro at concentrations up to 1 mM [4]: little inhibition |
